Results from article PMC8533149 (Biomolecules, 2021).

System: HIV-1 LTR-III G-quadruplex (FAM/TAMRA-labeled LTR-III)
Experiment: FRET melting assay, LTR-III G4
Assay type: binding
Conditions: Table S1 primary screening, ligand:ODN 50:1, singlicate
How it was run: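 Melting is followed by FAM fluorescence (ex 495/em 520 nm) while heating at 1 °C/min from 30 to 95 °C. Labelled ODN at 0.5 μM, pre-annealed in 10 mM Li cacodylate, 100 mM KCl, pH 7.4, mixed with ligand at 50:1 (25 μM), or 20:1 and 2:1 for titration. ΔTm is relative to the 0.25% DMSO buffer control.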

SMILES | LTR-III ΔTm [°C]
CC1=NC(=Cc2ccc(OCc3ccccc3)cc2)C(=O)N1C [X 7] | 0
CC1=NC(=Cc2cc(F)c(O)c(F)c2)C(=O)N1 [N 853] | -0.9
COC(=O)c1noc(C(=O)N2CCCCC2)c1-c1ccc(OC)cc1 [SA 561C] | -1
COc1ccc(C=CC2=NC(=Cc3ccc([N+](=O)[O-])cc3)C(=O)N2C)cc1 [AI 119] | 1.4
CC1=NC(=Cc2cc(C(C)(C)C)c(O)c(C(C)(C)C)c2)C(=O)N1C [M 2273.1] | 0.2
COc1ccc(C=CC2=NC(=Cc3ccnc4ccccc34)C(=O)N2C)cc1 [AL 122] | -0.6
O=C1NC(=S)SC1=Cc1ccc(O)cc1Br [SAI 122] | 0.1
Cc1cc(/C=C2\SC(=S)NC2=O)ccc1O [HMBR] | -0.6
CC(C)OC(=O)c1noc(C(=O)N2CCOCC2)c1-c1cccc(C(F)(F)F)c1 [SA 344A] | -0.5
CCN(CC)c1ccc(C=C2N=C(C=Cc3ccncc3)N(C)C2=O)cc1 [M 895] | 0.8
CCN(CC)c1ccc(C=C2N=C(C)N(CCCC(=O)O)C2=O)cc1 [GC 03] | 0.4
O=C1NC(c2ccccc2)=NC1=Cc1ccc(O)cc1 [X 24] | -0.5
CN1C(=O)C(=Cc2ccc(O)cc2)N=C1C=Cc1cccc(C(F)(F)F)c1 [N 873] | 0.4
CC(C)OC(=O)c1noc(=O)c(O)c1-c1ccccc1F [SA 305A] | -0.7
CN1C(=O)C(=Cc2ccc(O)cc2)N=C1C=CC=Cc1ccccc1 [ccA 4] | 0.8
COc1cc(O)ccc1/C=C1\N=C(C(C)=O)N(C)C1=O [N 1124] | 1.3
CSC1=NC(=Cc2ccc(O)cc2)C(=O)N1C [SA 581] | 1
CC(=O)NCCN1C(=O)C(=Cc2ccc(O)cc2)N=C1C=Cc1ccc(O)cc1 [ccE 2] | -0.1
CC1=NC(=Cc2ccccc2O)C(=O)N1C [M 1583.4] | 0.2
CN(C)c1ccc(C(O)(c2ccc(N(C)C)cc2)c2ccccn2)cc1 [M 1122] | -0.6
CC(=O)Oc1ccc(C=C2N=C(C=C(OC(=O)c3ccc(C)cc3)c3ccc(C)cc3)N(C)C2=O)cc1 [M 202] | -0.6
CC(C)OC(=O)c1noc(C(=O)NCc2ccccc2)c1-c1ccc(N(C)C)cc1 [SA 332E1] | -0.6
CCN1C(=O)C(=CC=Cc2ccc(O)cc2)N=C1C [M 1379.2] | -0.2

SMILES | LTR-III ΔTm [°C]
CC1=N/C(=C\c2ccccc2O[Si](c2ccccc2)(c2ccccc2)C(C)(C)C)C(=O)N1C [M 1586] | -0.3
COc1cc(O)cc(OC)c1C=C1N=C(C)N(C)C1=O [N 976] | 0.5
CC1=NC(=CC=Cc2ccc(O)cc2)C(=O)N1C [M 1378] | -0.7
COc1ccc(C=C2N=C(C=C(OC(=O)c3ccc(C)cc3)c3ccc(C)cc3)N(C)C2=O)cc1 [SV 18] | 0.4
CN1C(=O)C(=Cc2ccc(SSc3ccc(C=C4N=C(C=Cc5cc(Br)c(O)c(Br)c5)N(C)C4=O)cc3)cc2)N=C1C=Cc1cc(Br)c(O)c(Br)c1 [N 898] | 0.1
CCN(CC)c1ccc(C=C2N=C(C)N(C)C2=O)cc1 [GC 01] | 0.4
COc1ccc(C=CC2=NC(=Cc3ccncc3)C(=O)N2C)cc1 [N 813] | 0.6
CNC(=O)C(=Cc1ccc(C#N)cc1)N=P(c1ccccc1)(c1ccccc1)c1ccccc1 [N 831] | 0
CC1=NC(=Cc2ccc3[nH]c(C)c(C)c3c2)C(=O)N1C [N 792] | 0.2
CCN(CC)c1ccc(C=C2N=C(C)N(C)C2=O)cc1 [M 1661] | 0.4
CC1=NC(=Cc2ccc(O)c(C#N)c2)C(=O)N1C [M 2489.2] | -0.5
CC1=NC(=Cc2cc(Br)cc(Br)c2)C(=O)N1C [SV 51.5] | -0.3
CCC1=NC(=Cc2c[nH]c3cccc(C)c23)C(=O)N1C [M 1978] | -0.1
CC1=NC(=Cc2ccc(N3CCCCCC3)cc2)C(=O)N1C [N 708.2] | 0.2
CN1C(=O)CN2C(=O)C(=Cc3ccc(O)cc3)N=C2C1=O [SA 108] | -0.1
CCN(CC)c1ccc(C=C2N=C(C)N(C)C2=O)c(B(F)F)c1 [M 739] | -0.4
CC=CC=CC1=NC(=Cc2ccc(O)cc2)C(=O)N1C [ccA 8] | 0.2
CCNCC.CCOC(=O)c1noc(=O)c(O)c1-c1ccccc1 [AL 58] | 0.1
CCN(CC)C(=S)Oc1ccc(C=C2N=C(C)N(C)C2=O)cc1 [M 2081] | 0.1
COc1ccc(/C=C2\N=C(C)N(C)C2=O)cc1OC [M 1583.6] | 0
CCN(CC)c1ccc(C=C2N=C(C=Cc3cc(Br)c(O)c(Br)c3)N(C)C2=O)cc1 [M 2368d] | 0.1
C=CCN1C(=O)C(=Cc2ccc(O[Si](c3ccccc3)(c3ccccc3)C(C)(C)C)cc2)N=C1C [M 653] | -0.2
CN1C(=O)C(=Cc2ccc(OC(=O)c3ccccc3)cc2)N=C1C=C(OC(=O)c1ccccc1)c1ccccc1 [M 228] | -0.8

SMILES | LTR-III ΔTm [°C]
CON1C(=O)C(=Cc2ccc(O)cc2)N=C1C [GA 16] | 0.3
CCC1=NC(=Cc2ccc(O)cc2)C(=O)N1O [GA 15] | -0.1
CN1C(=O)C(=Cc2ccc(O)cc2)N=C1C(=O)c1ccccc1 [M 2372a] | 0.1
CC1=NC(=Cc2ccccc2)C(=O)N1Cc1ccccc1 [ZS142] | -1.4
COC(=O)c1noc(C(=O)N2CCCC2)c1-c1ccc(OC)cc1 [SA 561B] | -0.6
COc1ccc(C=CC2=NC(=Cc3cc(OC)ccc3OC)C(=O)N2C)cc1 [AI 118] | -0.1
CC1=NC(=Cc2ccc(N3CCC3)cc2)C(=O)N1C [N 710.12] | 0.1
CN1C(=O)C(=Cc2ccc(C#N)cc2)N=C1Nc1ccccc1 [M 2385a] | -0.1
CC(C)OC(=O)c1noc(=O)c(O)c1-c1cccc2ccccc12 [SA 300B] | -0.9
CCCCN(CCCC)c1cccc(C=C2N=C(C)N(C)C2=O)c1 [M 1600] | -0.4
COc1ccccc1C=CC1=NC(=Cc2ccc(O)cc2)C(=O)N1CCNC(C)=O [ccE 7] | 0.3
COc1ccc(C(O)(c2ccccc2)c2ccccn2)cc1 (stereo not shown) [M 1136] | -0.7
C=CCOc1ccc(C=C2N=C(C)N(C)C2=O)cc1 [X 8] | 0
CC1=NC(=Cc2ccc(O)c(F)c2)C(=O)N1C [M 556] | -0.2
CN(C)C=CC1=NC(=Cc2ccc(O)cc2)C(=O)N1C [M 995a] | 0.1
CC(C)OC(=O)c1noc(C(=O)N2CCCC2)c1-c1ccccc1 [SA 307A] | -0.3
COc1cc(/C=C2N=C(/C=C/c3ccccc3)N(C)C\2=O)ccc1O [M 2499a] | 0.1
CN1C(=O)C(=Cc2ccc(O)cc2)N=C1C=Cc1cc(Cl)nc(Cl)c1 [N 886] | -0.2
CC(=O)Oc1ccc(C=C2N=C(C=Cc3ccccc3)N(C)C2=O)cc1 [M 1009A] | 0.5
COC(=O)c1noc(C(=O)NCc2ccccc2)c1-c1ccc(OC)cc1 [SA 561D] | -0.4
COc1ccccc1C=CC1=NC(=Cc2ccc(O)cc2)C(=O)N1C [ccA 20] | 0.4
COc1ccccc1C=C1N=C(C)N(C)C1=O [M 1583.5] | 0.1
Oc1cccc2nc3ccccc3nc12 [M 1255] | -0.6

SMILES | LTR-III ΔTm [°C]
COc1ccc(N)cc1C=C1N=C(C)N(C)C1=O [ZS 62] | 0
CNc1ccc(C=C2N=C(C)N(C)C2=O)cc1N [M 1165] | 0.9
CC1=NC(=Cc2ccc([N+](=O)[O-])cc2)C(=O)N1C1CCCCC1 [ZS 146] | 0.2
CC1=NC(=Cc2cc(F)c(O)c(F)c2)C(=O)N1C [M 2296] | -0.4
COc1cc(C=C2SC(=S)NC2=O)cc(OC)c1O [DOM] | -0.6
CCC1=NC(=Cc2ccc(O[Si](c3ccccc3)(c3ccccc3)C(C)(C)C)cc2)C(=O)N1O[Si](c1ccccc1)(c1ccccc1)C(C)(C)C [M 1505] | -0.3
CCOC(=O)CN1C(=O)C(=Cc2ccc(Br)cc2)N=C1c1ccccc1 [X 6] | -0.1
CCOc1cc(C=C2N=C(C)N(C)C2=O)ccc1O [M 2486] | 0
COc1ccc(C=C2N=C(C=C(O)c3ccc(F)cc3)N(C)C2=O)cc1 [SV 30] | -0.4
CC1=NC(=Cc2cccc(O)c2)C(=O)N1C [M 1300] | 0.2
O=C1/C(=C/c2ccncc2)N=C2C=CC=CN12 [N 817] | 0
CCC1=NC(=Cc2cc(C(C)(C)C)c(O)c(C(C)(C)C)c2)C(=O)N1C [AL 135.2] | -1.3
COc1ccc2cc(OC)c(C=C3N=C(C)N(C)C3=O)cc2c1 [SA 410] | -0.2
CC1=NC(=Cc2cc(Br)c(O)c(Br)c2)C(=O)N1C [M 906] | -2.7
CC1=NC(=Cc2ccnc3ccccc23)C(=O)N1C [SA 471] | -0.1
CC(=O)NC(=Cc1ccc([N+](=O)[O-])cc1)C(=O)NC1CCCCC1 [X 28] | -0.3
O=C1NC(=S)SC1=Cc1ccc(O)c(Cl)c1 [SAI 125] | 0.6
CN1C(=O)C(=Cc2ccc(O)cc2)N=C1C=Cc1ccc(Br)cc1 [ccA 7] | 0.8
CC(C)OC(=O)c1noc(C(=O)NCc2ccccc2)c1-c1ccc(C(C)C)cc1 [SA 342B] | -0.5
CN1C(=O)C(=Cc2ccc(O)cc2)N=C1C=Cc1ccccc1O [ccA 15] | 0.5
CC1=NC(=Cc2cccc(C(F)(F)F)c2)C(=O)N1C [M 2375] | -0.2
CSC(=CC1=NC(=Cc2ccc(O)cc2)C(=O)N1C)c1ccccc1 [SA 599.21] | -0.3
